BindingDB's records for doi:10.1021/jm9011609 (University of Manchester, 2009)

Target: NAD(P)H dehydrogenase [quinone] 1 (Homo sapiens, UniProt P15559)
Assay: Inhibition of NQO1 (With 2 uM BSA)
Conditions: pH 7.5
Description: On some occasions, potential inhibitors were dissolved in 0.13 M NaOH. Reactions were carried out at 25 deg C and cytochrome c reduction was monitored at 550nm in a BeckmanDU650 spectrophotometer.

NAD(P)H dehydrogenase [quinone] 1, sequence (P15559 whole entry): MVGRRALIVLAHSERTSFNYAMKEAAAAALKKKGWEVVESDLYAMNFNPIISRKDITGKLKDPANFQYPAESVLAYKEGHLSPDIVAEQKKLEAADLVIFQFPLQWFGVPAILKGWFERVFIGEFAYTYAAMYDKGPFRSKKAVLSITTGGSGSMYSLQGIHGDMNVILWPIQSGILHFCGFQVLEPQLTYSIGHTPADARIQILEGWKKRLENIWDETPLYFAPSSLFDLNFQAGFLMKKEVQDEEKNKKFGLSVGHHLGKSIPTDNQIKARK

Row | Compound | IC50 [nM] | IC50 (25 °C) [nM]
1 | O=c1oc2c(ccc3ccccc32)c(O)c1Cc1ccccc1 [4-hydroxy-2H-chromen-2-one core, 21] | 35 | 880
2 | O=c1oc2ccc3ccccc3c2c(O)c1Cc1ccc2ccccc2c1 [4-hydroxy-2H-chromen-2-one core, 23] | 6 | 2370
